Entries after “also recorded” stand apart in the source; their conditions may differ. Where two headings read alike, the source gives them in different places.
Assays:
[1] = biological target: nsp14–nsp10 (Severe acute respiratory syndrome coronavirus 2, UniProt P0DTD1); assay type: binding, SARS-CoV-2; conditions: for ΔTm: 1 µM nsp14-10; for effect on thermal stability / aggregation of nsp14–nsp10 (words): 3.1-100 µM compound
[2] = biological target: SARS-CoV-2 nsp14–nsp10 complex (nuclease activity) (Severe acute respiratory syndrome coronavirus 2, UniProt P0DTD1); assay: biochemical; conditions: for inhibition of substrate digestion in gel-based assay: 100 nM nsp14–nsp10, compound up to 100 μM; for IC50 / IC50 value: 100 nM nsp14–nsp10, 10 nM 20-mer ssRNA, 37°C 45 min, approximate/preliminary
[3] = biological target: guanine N7 methyl transferase (MTase) activity of nsp14–nsp10 (Severe acute respiratory syndrome coronavirus 2, UniProt P0DTD1); assay: HTRF methyltransferase assay; assay type: biochemical, SARS-CoV-2; conditions: 2.5, 5 and 10 μM compound; 10 nM nsp14-nsp10, 5 μM SAM, 0.14 mM GP3G
[4] = biological target: nsp14–nsp10 co-incubated with nsp8 (Severe acute respiratory syndrome coronavirus 2, UniProt P0DTD1); assay: gel-based nuclease inhibition assay with nsp8 stimulation; assay type: biochemical, SARS-CoV-2; conditions: 100 nM nsp14-nsp10 and 300 nM nsp8, compound 3-100 μM
[5] = biological target: SARS-CoV-2 nsp14–nsp10 RNase activity (Severe acute respiratory syndrome coronavirus 2, UniProt P0DTD1); assay type: biochemical
[6] = system: SARS-CoV-2; conditions: cited from earlier work
[7] = Supplementary Table 2, in vitro inhibition of nsp14-nsp10 nuclease activity, result in words
[8] = 125 nM (ions) or 250 nM (chelators) nsp14-nsp10, ions 0.05-10 mM, chelators 0.03-1 mM

COc1ccc2c3c(cccc13)C(=O)N(O)C2=O [A-1] showed a ΔTm ([1]; 3.1 µM compound) of 0.02 °C, a ΔTm ([1]; 6.3 µM compound) of 0.31 °C and a ΔTm ([1]; 12.5 µM compound) of 0.25 °C. For the same compound, the ΔTm ([1]; 25 µM compound) was 0.17 °C, the ΔTm ([1]; 50 µM compound) was 0.29 °C and the ΔTm ([1]; 100 µM compound) was 0.60 °C. The “inhibition of substrate digestion in gel-based assay” value [2] was “qualitatively complete inhibition of substrate digestion”.

In the case of COc1cc2c3c(cccc3c1)C(=O)N(O)C2=O [A-2], the “MTase inhibition” value [3] is reported as “demonstrated MTase inhibition activity”, the ΔTm ([1]; 3.1 µM compound) is reported as 0.01 °C and the ΔTm ([1]; 6.3 µM compound) is reported as 0.26 °C. For the same compound, the ΔTm ([1]; 12.5 µM compound) was 0.22 °C, the ΔTm ([1]; 25 µM compound) was 0.21 °C and the ΔTm ([1]; 50 µM compound) was 0.36 °C. The “inhibition of nuclease activity in presence of nsp8” value (“inhibition of nuclease activity” below) [4] was “inhibition was still observed, albeit at higher inhibitor concentrations”, the IC50 [2] was 20.7 ± 0.5 µM and the “inhibition of substrate digestion in gel-based assay” value [2] was “qualitatively complete inhibition of substrate digestion”. The Level of inhibition [2, 7] was “Yes”.

Work on O=c1[nH]c2ccccc2c(=O)n1O [A-3] yielded a ΔTm ([1]; 3.1 µM compound) of -0.10 °C, a ΔTm ([1]; 6.3 µM compound) of 0.13 °C and a ΔTm ([1]; 12.5 µM compound) of 0.31 °C. It also gave a ΔTm ([1]; 25 µM compound) of 1.33 °C and a ΔTm ([1]; 50 µM compound) of 0.36 °C.

Compound O=c1c2ccccc2n(Cc2ccccc2)c(=O)n1O [A-4] has a ΔTm ([1]; 3.1 µM compound) of -0.06 °C, a ΔTm ([1]; 6.3 µM compound) of 0.11 °C and a ΔTm ([1]; 12.5 µM compound) of 0.27 °C. For the same compound, the ΔTm ([1]; 25 µM compound) was -1.33 °C, the ΔTm ([1]; 50 µM compound) was 0.35 °C and the ΔTm ([1]; 100 µM compound) was 0.62 °C. For the same compound, the IC50 [2] was 94.1 ± 27 µM and the Level of inhibition [2, 7] was “Yes”.

O=c1c2ccccc2[nH]c(=S)n1O [A-5, 3-Hydroxy-2-thioxo-2,3-dihydroquinazolin-4-one] showed a ΔTm ([1]; 3.1 µM compound) of 0.00 °C, a ΔTm ([1]; 6.3 µM compound) of 0.24 °C and a ΔTm ([1]; 12.5 µM compound) of 0.19 °C. The ΔTm ([1]; 25 µM compound) was 0.00 °C, the ΔTm ([1]; 50 µM compound) was 0.38 °C and the ΔTm ([1]; 100 µM compound) was 0.61 °C. For the same compound, the IC50 value [2] was “incomplete inhibition”.

With O=C(O)C1=CC(=C(c2ccc(O)c(C(=O)O)c2)c2ccc(O)c(C(=O)O)c2)C=CC1=O [ATA, Aurintricarboxylic acid, reference compound] the ΔTm ([1]; 3.1 µM compound) was 0.33 °C, the ΔTm ([1]; 6.3 µM compound) was 0.27 °C and the ΔTm ([1]; 12.5 µM compound) was 0.85 °C. For the same compound, the ΔTm ([1]; 25 µM compound) was 3.08 °C, the “effect on thermal stability / aggregation of nsp14–nsp10 (words)” value [1] was “destabilizing effect on thermal stability of nsp14–nsp10” and the “effect on thermal stability / aggregation of nsp14–nsp10 (words)” value ([1]; listed as aurintricarboxylic acid) was “appears to aggregate the protein at high concentration”. For the same compound, the Level of inhibition [2, 7] was “Yes”.

For O=C(O)c1nc(-c2ccccc2)nc(O)c1O [B-1, 5,6-Dihydroxyl-2-phenylpyrimidine-4-carboxylic acid], the “MTase inhibition” value [3] was “demonstrated MTase inhibition activity; also recorded: most potent compound”, the ΔTm ([1]; 3.1 µM compound) was -0.15 °C and the ΔTm ([1]; 6.3 µM compound) was 0.02 °C. The ΔTm ([1]; 12.5 µM compound) was 0.08 °C, the ΔTm ([1]; 25 µM compound) was -0.57 °C and the ΔTm ([1]; 50 µM compound) was 0.23 °C. For the same compound, the ΔTm ([1]; 100 µM compound) was 0.46 °C, the “inhibition of nuclease activity” value [4] was “inhibition was still observed, albeit at higher inhibitor concentrations” and the IC50 [2] was 32.2 ± 4.5 µM. The Level of inhibition [2, 7] was “Yes”.

With O=C(O)CN(CCOCCOCCN(CC(=O)O)CC(=O)O)CC(=O)O [EGTA, ethylene glycol-bis (b-aminoethyl ether)-N,N,N’,N’-tetraacetic acid, reference compound] the “effect on RNase activity of nsp14–nsp10” value [5, 8] was “inhibitory”.

With Cc1ccc(-n2sc3ccccc3c2=O)cc1 [PBIT, reference compound] the IC50 value [2] was “IC50 not reached under assay conditions”.

For CCN(CC)C(=S)SSC(=S)N(CC)CC [disulfiram, reference compound], the ΔTm ([1]; 3.1 µM compound) was -0.53 °C, the ΔTm ([1]; 6.3 µM compound) was -0.58 °C and the ΔTm ([1]; 12.5 µM compound) was -0.13 °C. It also gave a ΔTm ([1]; 25 µM compound) of -0.42 °C, a ΔTm ([1]; 50 µM compound) of -0.40 °C and a ΔTm ([1]; 100 µM compound) of 0.33 °C.

In the case of O=c1c2ccccc2[se]n1-c1ccccc1 [ebselen, reference compound], the “antiviral activity in cell-based assays” value [6] is listed as “exhibited antiviral activity in cell-based assays”, the “MTase inhibition” value [3] is listed as “demonstrated MTase inhibition activity” and the “inhibition of nuclease activity” value [4] is listed as “inhibition was still observed, albeit at higher inhibitor concentrations”. For the same compound, the Level of inhibition [2] was “Yes”.

With [Mg] [magnesium] the “effect on RNase activity of nsp14–nsp10” value [5, 8] was “promoted the RNase activity”.

For [Mn+2] [manganese], the “effect on RNase activity of nsp14–nsp10” value [5] was “promoted the RNase activity”.

With c1cnc2c(c1)ccc1cccnc12 [o-phenanthroline, reference compound] the “effect on RNase activity of nsp14–nsp10” value [5, 8] was “inhibitory”.

In the case of Cc1nnc(C(=O)NC(C)(C)c2nc(C(=O)NCc3ccc(F)cc3)c(O)c(=O)n2C)o1 [raltegravir, reference compound], the “antiviral activity in cell-based assays” value [6] is listed as “did not” and the IC50 [2] is listed as 24.4 ± 2.7 µM.

Work on CN(C)C(=S)SSC(=S)N(C)C [thiram, reference compound] yielded a ΔTm ([1]; 3.1 µM compound) of -0.53 °C, a ΔTm ([1]; 6.3 µM compound) of -0.46 °C and a ΔTm ([1]; 12.5 µM compound) of -0.22 °C. It also gave a ΔTm ([1]; 25 µM compound) of -0.42 °C, a ΔTm ([1]; 50 µM compound) of -0.43 °C and a ΔTm ([1]; 100 µM compound) of -0.21 °C. The IC50 [2] was 48.2 ± 1.8 µM and the Level of inhibition [2, 7] was “Yes”.

In the case of [Cl-].[Cl-].[Zn+2] [zinc], the “effect on RNase activity of nsp14–nsp10” value [5] is reported as “inhibitory”.
